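Grown in 96-well plates, cells were treated for 48 hours with each compound at five concentrations. Insufficient inhibition: endpoint recorded as highest concentration tested. The concentration for 50% growth inhibition is given as GI50.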 Calls of active or inactive are those of the source. Rule as the data show it: active = GI50 up to about 1.1 µM and inactive = higher.
Legend:
Experiment in all cases: NCI-60 cell line screen, 48 h
[1] = tested on: 786-0
[2] = tested on: A498
[3] = tested on: A549
[4] = tested on: ACHN
[5] = tested on: BT-549
[6] = tested on: CAKI-1
[7] = tested on: CCRF-CEM
[8] = tested on: COLO 205
[9] = tested on: DU-145
[10] = tested on: EKVX
[11] = tested on: HCC 2998
[12] = tested on: HCT-116
[13] = tested on: HCT-15
[14] = tested on: HL-60
[15] = tested on: HOP-62
[16] = tested on: HOP-92
[17] = tested on: HT-29
[18] = tested on: Hs-578T
[19] = tested on: IGROV-1
[20] = tested on: K562
[21] = tested on: KM12
[22] = tested on: LOX IMVI
[23] = tested on: M14
[24] = tested on: MCF7
[25] = tested on: MDA-MB-231
[26] = tested on: MDA-MB-435
[27] = tested on: MDA-N
[28] = tested on: MOLT-4
[29] = tested on: Malme-3M
[30] = tested on: NCI-H226
[31] = tested on: NCI-H23
[32] = tested on: NCI-H460
[33] = tested on: NCI-H522
[34] = tested on: NCI/ADR-RES
[35] = tested on: OVCAR-3
[36] = tested on: OVCAR-4
[37] = tested on: OVCAR-5
[38] = tested on: OVCAR-8
[39] = tested on: PC-3
[40] = tested on: RPMI-8226
[41] = tested on: RXF 393
[42] = tested on: SF-268
[43] = tested on: SF-295
[44] = tested on: SF-539
[45] = tested on: SK-MEL-28
[46] = tested on: SK-MEL-2
[47] = tested on: SK-MEL-5
[48] = tested on: SK-OV-3
[49] = tested on: SN12C
[50] = tested on: SNB-19
[51] = tested on: SNB-75
[52] = tested on: SR
[53] = tested on: SW-620
[54] = tested on: T47D
[55] = tested on: TK-10
[56] = tested on: U-251
[57] = tested on: UACC-257
[58] = tested on: UACC-62
[59] = tested on: UO-31

CN(C)Cc1cc(/N=N/c2ccc(Cl)cc2)ccc1O
GI50 [1]: 12.8 µM (inactive)
GI50 [2]: 16.4 µM (inactive)
GI50 [3]: 16 µM (inactive)
GI50 [4]: 15.3 µM (inactive)
GI50 [5]: 10.7 µM (inactive)
GI50 [6]: 15.4 µM (inactive)
GI50 [7]: 17.8 µM (inactive)
GI50 [8]: 3.81 µM (inactive)
GI50 [9]: 25.1 µM (inactive)
GI50 [10]: 18.3 µM (inactive)
GI50 [11]: 14.6 µM (inactive)
GI50 [12]: 16.7 µM (inactive)
GI50 [13]: 15.1 µM
GI50 [14]: 13.5 µM (inactive)
GI50 [15]: 10.1 µM (inactive)
GI50 [16]: 4.46 µM (inactive)
GI50 [17]: 12.6 µM (inactive)
GI50 [18]: 15 µM (inactive)
GI50 [19]: 15.8 µM (inactive)
GI50 [20]: 17.3 µM (inactive)
GI50 [21]: 17.3 µM (inactive)
GI50 [22]: 11.4 µM (inactive)
GI50 [23]: 9.75 µM (inactive)
GI50 [24]: 17.4 µM (inactive)
GI50 [25]: 16.1 µM (inactive)
GI50 [26]: 16.7 µM (inactive)
GI50 [27]: 19.5 µM (inactive)
GI50 [28]: 15.2 µM (inactive)
GI50 [29]: 14 µM (inactive)
GI50 [30]: 14.6 µM (inactive)
GI50 [31]: 23 µM (inactive)
GI50 [32]: 13.8 µM (inactive)
GI50 [33]: 13.5 µM (inactive)
GI50 [34]: 17.7 µM (inactive)
GI50 [35]: 11.5 µM (inactive)
GI50 [36]: 16.5 µM (inactive)
GI50 [37]: 12.1 µM (inactive)
GI50 [38]: 16.9 µM (inactive)
GI50 [39]: 14.7 µM (inactive)
GI50 [40]: > 10 µM (inactive)
GI50 [41]: 13.9 µM (inactive)
GI50 [42]: 14.8 µM (inactive)
GI50 [43]: 16.5 µM (inactive)
GI50 [44]: 18.1 µM (inactive)
GI50 [45]: 16 µM (inactive)
GI50 [46]: 21.3 µM (inactive)
GI50 [47]: 14.4 µM (inactive)
GI50 [48]: 18.7 µM (inactive)
GI50 [49]: 16.9 µM (inactive)
GI50 [50]: 17.3 µM (inactive)
GI50 [51]: 14.9 µM (inactive)
GI50 [52]: 16.4 µM (inactive)
GI50 [53]: 16.4 µM (inactive)
GI50 [54]: 12.4 µM (inactive)
GI50 [55]: 15 µM (inactive)
GI50 [56]: 17.4 µM (inactive)
GI50 [57]: 18.7 µM (inactive)
GI50 [58]: 16 µM (inactive)
GI50 [59]: 11.7 µM (inactive)

Cc1ccc(/C=N/Nc2nncc3ccccc23)s1
GI50 [1]: > 52.2 µM (inactive)
GI50 [2]: > 100 µM (inactive)
GI50 [3]: > 100 µM (inactive)
GI50 [4]: > 100 µM (inactive)
GI50 [5]: > 55.8 µM (inactive)
GI50 [6]: > 100 µM (inactive)
GI50 [7]: > 100 µM (inactive)
GI50 [8]: > 100 µM (inactive)
GI50 [9]: > 31.6 µM (inactive)
GI50 [10]: > 100 µM (inactive)
GI50 [11]: > 72.8 µM (inactive)
GI50 [12]: 59.6 µM (inactive)
GI50 [13]: > 100 µM
GI50 [14]: > 100 µM (inactive)
GI50 [15]: > 46.7 µM (inactive)
GI50 [16]: > 100 µM (inactive)
GI50 [17]: > 100 µM (inactive)
GI50 [18]: 35.6 µM (inactive)
GI50 [19]: > 61 µM (inactive)
GI50 [20]: > 100 µM (inactive)
GI50 [21]: > 46.2 µM (inactive)
GI50 [22]: > 61.2 µM (inactive)
GI50 [23]: > 67.5 µM (inactive)
GI50 [24]: 19.5 µM (inactive)
GI50 [25]: 33 µM (inactive)
GI50 [26]: 97.1 µM (inactive)
GI50 [27]: > 61.4 µM (inactive)
GI50 [28]: > 100 µM (inactive)
GI50 [29]: > 75.9 µM (inactive)
GI50 [30]: > 69.2 µM (inactive)
GI50 [31]: > 83.8 µM (inactive)
GI50 [32]: > 100 µM (inactive)
GI50 [33]: 31.5 µM (inactive)
GI50 [34]: 48 µM (inactive)
GI50 [35]: > 55.8 µM (inactive)
GI50 [36]: 26.3 µM (inactive)
GI50 [37]: > 100 µM (inactive)
GI50 [38]: 65.2 µM (inactive)
GI50 [39]: 96.8 µM (inactive)
GI50 [40]: > 100 µM (inactive)
GI50 [41]: > 100 µM (inactive)
GI50 [42]: > 58.1 µM (inactive)
GI50 [43]: 35.9 µM (inactive)
GI50 [44]: 52.6 µM (inactive)
GI50 [45]: > 100 µM (inactive)
GI50 [46]: > 95.3 µM (inactive)
GI50 [47]: > 100 µM (inactive)
GI50 [48]: > 84.1 µM (inactive)
GI50 [49]: > 100 µM (inactive)
GI50 [50]: > 100 µM (inactive)
GI50 [51]: > 44.2 µM (inactive)
GI50 [52]: > 100 µM (inactive)
GI50 [53]: > 100 µM (inactive)
GI50 [54]: > 100 µM (inactive)
GI50 [55]: > 52 µM (inactive)
GI50 [56]: 53.2 µM (inactive)
GI50 [57]: > 100 µM (inactive)
GI50 [58]: > 52.1 µM (inactive)
GI50 [59]: > 100 µM (inactive)

CCN1/C(=C/c2ccc3ccccc3[n+]2CC)C=Cc2ccccc21
GI50 [1]: 2.32 µM (inactive)
GI50 [2]: 2.13 µM (inactive)
GI50 [3]: 0.764 µM (active)
GI50 [4]: 2.33 µM (inactive)
GI50 [5]: 1.69 µM (inactive)
GI50 [6]: 10 µM (inactive)
GI50 [7]: 0.26 µM (active)
GI50 [8]: 0.19 µM (active)
GI50 [9]: 0.867 µM (active)
GI50 [10]: 1.72 µM (inactive)
GI50 [11]: 0.482 µM (active)
GI50 [12]: 0.509 µM (active)
GI50 [13]: 4.89 µM
GI50 [14]: 1.09 µM (active)
GI50 [15]: 0.805 µM (active)
GI50 [16]: 1.44 µM (inactive)
GI50 [17]: 1.14 µM (inactive)
GI50 [18]: 1.01 µM (active)
GI50 [19]: 2.51 µM (inactive)
GI50 [20]: 0.262 µM (active)
GI50 [21]: 0.149 µM (active)
GI50 [22]: 0.561 µM (active)
GI50 [23]: 0.851 µM (active)
GI50 [24]: 0.367 µM (active)
GI50 [25]: 1.77 µM (inactive)
GI50 [26]: 0.316 µM (active)
GI50 [27]: 0.39 µM (active)
GI50 [28]: 0.641 µM (active)
GI50 [29]: 1.39 µM (inactive)
GI50 [30]: 1.66 µM (inactive)
GI50 [31]: 0.551 µM (active)
GI50 [32]: 0.333 µM (active)
GI50 [33]: 0.266 µM (active)
GI50 [34]: 21.9 µM (inactive)
GI50 [35]: 0.269 µM (active)
GI50 [36]: 0.617 µM (active)
GI50 [37]: 5.37 µM (inactive)
GI50 [38]: 0.555 µM (active)
GI50 [39]: 0.445 µM (active)
GI50 [40]: 0.19 µM (active)
GI50 [41]: 2.12 µM (inactive)
GI50 [42]: 1.27 µM (inactive)
GI50 [43]: 0.479 µM (active)
GI50 [44]: 1.89 µM (inactive)
GI50 [45]: 1.15 µM (inactive)
GI50 [46]: 0.687 µM (active)
GI50 [47]: 0.329 µM (active)
GI50 [48]: 2.18 µM (inactive)
GI50 [49]: 0.649 µM (active)
GI50 [50]: 0.541 µM (active)
GI50 [51]: 0.35 µM (active)
GI50 [52]: 0.164 µM (active)
GI50 [53]: 0.762 µM (active)
GI50 [54]: 0.22 µM (active)
GI50 [55]: 2.81 µM (inactive)
GI50 [56]: 0.131 µM (active)
GI50 [57]: 0.18 µM (active)
GI50 [58]: 0.767 µM (active)
GI50 [59]: 3.09 µM (inactive)
